Measured values from paper PMC10004634 (PLOS ONE, 2023).
Read-outs that look alike come from different tables or passages of the source.

Assays:
Assay in all cases: biochemical
Set-up in all cases: KINOMEscan scanMAX competition binding, DNA-tagged kinases, qPCR read-out, percent control at 300 nM
HIPK4 = biological target: T1, HIPK4 (Homo sapiens, UniProt Q8NE63)
T1 sequence (Q8NE63 1-616): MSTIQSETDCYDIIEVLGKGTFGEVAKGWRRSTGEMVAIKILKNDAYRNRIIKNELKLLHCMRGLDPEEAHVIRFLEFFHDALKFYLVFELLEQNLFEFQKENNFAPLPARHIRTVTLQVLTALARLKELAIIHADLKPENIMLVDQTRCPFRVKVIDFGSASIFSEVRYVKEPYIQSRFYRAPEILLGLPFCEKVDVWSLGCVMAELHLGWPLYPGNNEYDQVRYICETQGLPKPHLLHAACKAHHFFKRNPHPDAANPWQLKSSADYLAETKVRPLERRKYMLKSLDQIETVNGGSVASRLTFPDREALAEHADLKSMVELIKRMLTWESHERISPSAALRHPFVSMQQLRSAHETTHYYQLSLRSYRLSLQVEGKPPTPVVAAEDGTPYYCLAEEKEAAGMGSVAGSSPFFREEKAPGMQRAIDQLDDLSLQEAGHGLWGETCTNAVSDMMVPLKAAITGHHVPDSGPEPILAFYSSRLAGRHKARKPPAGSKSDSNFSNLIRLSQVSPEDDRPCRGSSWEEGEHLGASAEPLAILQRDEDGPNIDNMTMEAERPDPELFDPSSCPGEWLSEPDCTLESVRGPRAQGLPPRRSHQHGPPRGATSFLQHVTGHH

[1] = biological target: T2, JAK1(JH1domain-catalytic) (Homo sapiens, UniProt P23458)
T2 construct: JH1domain-catalytic
T2 sequence (P23458 whole entry): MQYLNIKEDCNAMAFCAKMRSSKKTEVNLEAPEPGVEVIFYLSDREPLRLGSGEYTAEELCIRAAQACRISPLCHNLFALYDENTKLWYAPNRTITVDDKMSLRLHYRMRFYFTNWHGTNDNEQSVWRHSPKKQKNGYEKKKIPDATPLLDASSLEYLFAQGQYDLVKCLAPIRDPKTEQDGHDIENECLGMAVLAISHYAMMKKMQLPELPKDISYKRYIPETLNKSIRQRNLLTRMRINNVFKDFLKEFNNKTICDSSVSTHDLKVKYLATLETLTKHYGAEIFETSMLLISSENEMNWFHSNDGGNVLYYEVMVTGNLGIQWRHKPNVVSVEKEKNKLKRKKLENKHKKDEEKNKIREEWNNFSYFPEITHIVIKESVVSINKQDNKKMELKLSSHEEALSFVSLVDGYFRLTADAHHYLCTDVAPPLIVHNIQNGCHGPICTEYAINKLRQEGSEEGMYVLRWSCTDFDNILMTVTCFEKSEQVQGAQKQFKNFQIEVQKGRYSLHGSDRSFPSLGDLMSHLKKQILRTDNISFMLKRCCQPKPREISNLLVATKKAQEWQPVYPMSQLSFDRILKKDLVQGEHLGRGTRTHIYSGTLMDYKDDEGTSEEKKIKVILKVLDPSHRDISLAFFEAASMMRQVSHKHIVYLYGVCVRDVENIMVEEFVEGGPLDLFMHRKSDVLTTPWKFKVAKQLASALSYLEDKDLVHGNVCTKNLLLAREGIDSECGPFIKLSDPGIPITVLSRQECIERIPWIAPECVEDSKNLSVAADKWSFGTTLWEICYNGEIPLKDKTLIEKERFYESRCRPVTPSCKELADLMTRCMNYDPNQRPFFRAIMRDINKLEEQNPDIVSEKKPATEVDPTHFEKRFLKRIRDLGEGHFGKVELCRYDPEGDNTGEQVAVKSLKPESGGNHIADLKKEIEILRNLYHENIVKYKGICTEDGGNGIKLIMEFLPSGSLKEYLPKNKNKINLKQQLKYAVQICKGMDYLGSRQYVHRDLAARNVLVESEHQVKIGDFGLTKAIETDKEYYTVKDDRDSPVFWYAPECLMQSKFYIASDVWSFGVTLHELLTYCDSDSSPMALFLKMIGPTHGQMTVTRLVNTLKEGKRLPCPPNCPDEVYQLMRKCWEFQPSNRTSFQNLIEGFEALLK

BRSK1 = biological target: T3, BRSK1 (Homo sapiens, UniProt Q8TDC3)
T3 sequence (Q8TDC3 1-778): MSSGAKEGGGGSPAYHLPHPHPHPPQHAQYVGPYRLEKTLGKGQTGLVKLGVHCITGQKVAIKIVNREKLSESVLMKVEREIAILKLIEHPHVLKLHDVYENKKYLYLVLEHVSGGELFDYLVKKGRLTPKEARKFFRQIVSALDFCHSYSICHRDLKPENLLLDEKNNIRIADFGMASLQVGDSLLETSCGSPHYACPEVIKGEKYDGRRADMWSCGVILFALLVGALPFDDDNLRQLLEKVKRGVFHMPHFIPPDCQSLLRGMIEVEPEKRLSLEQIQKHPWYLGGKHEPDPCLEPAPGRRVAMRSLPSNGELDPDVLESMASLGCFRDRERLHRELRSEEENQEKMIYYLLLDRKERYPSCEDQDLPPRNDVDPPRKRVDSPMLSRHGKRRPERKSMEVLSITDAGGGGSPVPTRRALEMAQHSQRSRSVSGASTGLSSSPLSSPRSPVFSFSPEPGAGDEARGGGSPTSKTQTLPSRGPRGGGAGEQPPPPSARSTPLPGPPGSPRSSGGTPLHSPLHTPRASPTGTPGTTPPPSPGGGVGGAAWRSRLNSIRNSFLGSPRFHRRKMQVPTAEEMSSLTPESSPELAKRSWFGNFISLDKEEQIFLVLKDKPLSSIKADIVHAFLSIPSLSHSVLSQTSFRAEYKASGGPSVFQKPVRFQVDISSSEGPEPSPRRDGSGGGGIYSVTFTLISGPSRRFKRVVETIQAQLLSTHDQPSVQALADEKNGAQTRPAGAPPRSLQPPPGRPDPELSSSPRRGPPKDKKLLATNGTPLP

KIT(D816V) = KIT(D816V) (Homo sapiens, UniProt P10721, D816V)
Sequence of KIT(D816V) (P10721 whole entry D816V): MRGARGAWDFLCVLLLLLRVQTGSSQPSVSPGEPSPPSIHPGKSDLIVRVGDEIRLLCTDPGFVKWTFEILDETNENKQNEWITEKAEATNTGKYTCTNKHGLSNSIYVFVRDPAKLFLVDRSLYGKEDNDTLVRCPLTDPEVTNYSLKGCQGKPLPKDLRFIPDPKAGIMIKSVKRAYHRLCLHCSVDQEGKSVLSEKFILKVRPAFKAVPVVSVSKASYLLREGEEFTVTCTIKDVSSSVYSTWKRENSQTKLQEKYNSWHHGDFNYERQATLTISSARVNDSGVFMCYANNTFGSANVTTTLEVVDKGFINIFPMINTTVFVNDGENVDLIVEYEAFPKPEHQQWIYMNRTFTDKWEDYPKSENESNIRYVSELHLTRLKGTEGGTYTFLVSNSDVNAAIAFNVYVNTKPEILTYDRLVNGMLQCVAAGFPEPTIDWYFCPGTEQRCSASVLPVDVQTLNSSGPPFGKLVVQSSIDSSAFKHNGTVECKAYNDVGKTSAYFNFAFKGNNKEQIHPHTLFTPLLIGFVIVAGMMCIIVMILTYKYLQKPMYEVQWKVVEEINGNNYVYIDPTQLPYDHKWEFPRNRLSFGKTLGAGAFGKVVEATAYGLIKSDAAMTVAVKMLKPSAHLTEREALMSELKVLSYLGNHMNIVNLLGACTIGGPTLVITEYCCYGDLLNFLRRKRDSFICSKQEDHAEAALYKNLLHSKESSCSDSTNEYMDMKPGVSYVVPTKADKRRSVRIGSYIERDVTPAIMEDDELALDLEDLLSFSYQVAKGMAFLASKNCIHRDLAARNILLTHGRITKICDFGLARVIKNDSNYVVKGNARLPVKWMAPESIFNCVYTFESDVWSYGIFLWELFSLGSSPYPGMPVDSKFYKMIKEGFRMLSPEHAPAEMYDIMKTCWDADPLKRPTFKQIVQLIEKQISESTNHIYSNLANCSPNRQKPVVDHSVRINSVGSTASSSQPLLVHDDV

PRKCH = PRKCH (Homo sapiens, UniProt P24723)
Sequence of PRKCH (P24723 whole entry): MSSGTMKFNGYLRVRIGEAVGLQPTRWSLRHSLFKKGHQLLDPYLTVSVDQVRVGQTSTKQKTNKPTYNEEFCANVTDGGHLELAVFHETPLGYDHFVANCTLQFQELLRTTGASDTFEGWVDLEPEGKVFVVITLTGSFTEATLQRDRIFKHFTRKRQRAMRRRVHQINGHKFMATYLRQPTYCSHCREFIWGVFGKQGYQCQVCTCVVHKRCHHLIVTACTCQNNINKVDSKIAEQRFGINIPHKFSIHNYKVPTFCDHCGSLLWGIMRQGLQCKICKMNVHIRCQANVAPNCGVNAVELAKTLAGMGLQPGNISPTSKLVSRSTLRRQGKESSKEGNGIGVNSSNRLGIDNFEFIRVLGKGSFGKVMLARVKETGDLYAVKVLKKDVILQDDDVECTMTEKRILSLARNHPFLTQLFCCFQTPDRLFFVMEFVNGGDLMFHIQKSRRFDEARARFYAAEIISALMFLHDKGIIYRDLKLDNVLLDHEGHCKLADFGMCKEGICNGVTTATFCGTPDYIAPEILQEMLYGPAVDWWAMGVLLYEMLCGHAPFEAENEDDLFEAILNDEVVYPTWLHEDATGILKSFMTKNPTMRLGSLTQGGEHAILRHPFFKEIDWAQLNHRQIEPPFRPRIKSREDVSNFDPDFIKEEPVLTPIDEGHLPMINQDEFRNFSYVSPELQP

ITK = biological target: T4, ITK (Homo sapiens, UniProt Q08881)
T4 sequence (Q08881 1-620): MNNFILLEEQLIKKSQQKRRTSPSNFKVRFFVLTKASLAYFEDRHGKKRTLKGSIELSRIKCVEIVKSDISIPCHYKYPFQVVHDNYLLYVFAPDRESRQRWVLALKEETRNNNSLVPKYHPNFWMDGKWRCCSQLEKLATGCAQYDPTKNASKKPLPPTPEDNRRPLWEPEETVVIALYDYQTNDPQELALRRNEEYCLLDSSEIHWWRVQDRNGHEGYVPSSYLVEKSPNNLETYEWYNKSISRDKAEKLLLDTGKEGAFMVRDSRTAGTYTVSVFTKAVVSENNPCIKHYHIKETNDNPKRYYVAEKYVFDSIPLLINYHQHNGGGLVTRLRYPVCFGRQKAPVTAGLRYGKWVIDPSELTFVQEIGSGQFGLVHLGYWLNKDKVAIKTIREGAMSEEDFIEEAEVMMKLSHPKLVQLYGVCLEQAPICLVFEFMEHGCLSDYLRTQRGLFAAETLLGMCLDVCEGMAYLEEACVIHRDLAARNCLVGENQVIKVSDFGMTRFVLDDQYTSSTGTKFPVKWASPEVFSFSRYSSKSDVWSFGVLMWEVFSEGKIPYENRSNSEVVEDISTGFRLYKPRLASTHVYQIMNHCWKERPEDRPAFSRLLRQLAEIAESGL

MET(M1250T) = MET(M1250T) (Homo sapiens, UniProt P08581, M1250T)
Sequence of MET(M1250T) (P08581 whole entry M1250T): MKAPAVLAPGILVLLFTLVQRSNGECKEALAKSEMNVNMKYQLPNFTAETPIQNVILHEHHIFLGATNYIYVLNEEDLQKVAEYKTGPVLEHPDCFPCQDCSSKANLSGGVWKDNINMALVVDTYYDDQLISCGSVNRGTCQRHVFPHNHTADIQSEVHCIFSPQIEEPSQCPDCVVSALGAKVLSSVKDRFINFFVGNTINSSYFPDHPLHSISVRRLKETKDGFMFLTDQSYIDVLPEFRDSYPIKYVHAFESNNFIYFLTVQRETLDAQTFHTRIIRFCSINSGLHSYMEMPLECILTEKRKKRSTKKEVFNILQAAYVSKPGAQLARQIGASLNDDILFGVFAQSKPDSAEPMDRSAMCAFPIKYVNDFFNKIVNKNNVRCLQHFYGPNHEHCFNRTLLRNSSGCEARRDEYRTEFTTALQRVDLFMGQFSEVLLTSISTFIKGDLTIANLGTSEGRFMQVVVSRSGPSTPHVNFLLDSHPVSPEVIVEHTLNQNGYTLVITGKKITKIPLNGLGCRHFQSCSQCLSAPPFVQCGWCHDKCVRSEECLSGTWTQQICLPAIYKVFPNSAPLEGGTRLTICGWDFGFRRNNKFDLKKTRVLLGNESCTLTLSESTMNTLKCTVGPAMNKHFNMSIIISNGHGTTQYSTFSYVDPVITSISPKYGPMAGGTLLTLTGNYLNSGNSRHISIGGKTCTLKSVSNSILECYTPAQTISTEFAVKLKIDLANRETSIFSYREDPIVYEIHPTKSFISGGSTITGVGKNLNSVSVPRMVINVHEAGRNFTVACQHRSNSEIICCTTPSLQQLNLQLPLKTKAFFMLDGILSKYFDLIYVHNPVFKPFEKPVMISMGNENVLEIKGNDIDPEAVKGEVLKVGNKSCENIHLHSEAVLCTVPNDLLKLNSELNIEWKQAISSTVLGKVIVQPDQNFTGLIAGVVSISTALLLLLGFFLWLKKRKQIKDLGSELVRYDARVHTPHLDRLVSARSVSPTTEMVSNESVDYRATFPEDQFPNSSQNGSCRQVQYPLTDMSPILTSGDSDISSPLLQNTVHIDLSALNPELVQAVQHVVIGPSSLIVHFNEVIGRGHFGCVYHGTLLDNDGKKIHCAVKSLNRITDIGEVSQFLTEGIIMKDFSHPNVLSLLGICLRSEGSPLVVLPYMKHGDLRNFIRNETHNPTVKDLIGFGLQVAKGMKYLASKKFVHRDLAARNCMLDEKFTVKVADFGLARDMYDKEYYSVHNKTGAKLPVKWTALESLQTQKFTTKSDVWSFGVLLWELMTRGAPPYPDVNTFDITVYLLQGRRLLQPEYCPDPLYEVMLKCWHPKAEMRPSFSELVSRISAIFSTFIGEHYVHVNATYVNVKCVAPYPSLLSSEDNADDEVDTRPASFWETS

RIPK2 = RIPK2 (Homo sapiens, UniProt O43353)
Sequence of RIPK2 (O43353 whole entry): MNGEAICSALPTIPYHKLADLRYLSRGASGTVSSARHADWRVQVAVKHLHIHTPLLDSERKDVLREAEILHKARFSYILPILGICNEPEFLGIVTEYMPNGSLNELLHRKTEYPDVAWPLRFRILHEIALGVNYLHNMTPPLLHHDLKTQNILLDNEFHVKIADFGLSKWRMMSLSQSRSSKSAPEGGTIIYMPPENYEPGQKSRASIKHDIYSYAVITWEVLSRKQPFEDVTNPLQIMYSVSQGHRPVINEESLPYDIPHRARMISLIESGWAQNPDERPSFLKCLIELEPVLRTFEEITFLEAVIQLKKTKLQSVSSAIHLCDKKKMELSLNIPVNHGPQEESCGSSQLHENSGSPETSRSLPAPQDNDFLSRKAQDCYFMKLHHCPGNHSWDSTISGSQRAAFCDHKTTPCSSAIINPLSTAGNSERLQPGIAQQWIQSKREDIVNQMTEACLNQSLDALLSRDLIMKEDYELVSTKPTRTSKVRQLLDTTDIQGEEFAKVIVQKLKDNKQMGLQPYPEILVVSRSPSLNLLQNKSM

HIPK3 = HIPK3 (Homo sapiens, UniProt Q9H422)
[2] = read-out: Percent control / Acalabrutinib
[3] = read-out: Percent control / Ibrutinib
[4] = read-out: Percent control / Tirabrutinib
[5] = read-out: Percent control / Zanubrutinib

`CC#CC(=O)N1CCC[C@H]1c1nc(-c2ccc(C(=O)Nc3ccccn3)cc2)c2c(N)nccn12` [Acalabrutinib] was tested. Which remaining binding at 0.3 µM (HIPK4; [2]) did it give?
Its remaining binding at 0.3 µM is 85%.

What about the remaining binding at 0.3 µM [1, 2] of the same compound?
The remaining binding at 0.3 µM was 64%.

What about the remaining binding at 0.3 µM (BRSK1; [2]) of the same compound?
Its remaining binding at 0.3 µM is 92%.

What about the remaining binding at 0.3 µM (KIT(D816V); [2]) of the same compound?
The remaining binding at 0.3 µM was 92%.

And the remaining binding at 0.3 µM (PRKCH; [2])?
Its remaining binding at 0.3 µM is 94%.

And the remaining binding at 0.3 µM (ITK; [2])?
The remaining binding at 0.3 µM was 97%.

And the remaining binding at 0.3 µM (MET(M1250T); [2])?
Its remaining binding at 0.3 µM is 93%.

What about the remaining binding at 0.3 µM (RIPK2; [2]) of the same compound?
Its remaining binding at 0.3 µM is 79%.

And the remaining binding at 0.3 µM (HIPK3; [2])?
Its remaining binding at 0.3 µM is 99%.

Which remaining binding at 0.3 µM (HIPK4; [3]) does the source give for `C=CC(=O)N1CCC[C@@H](n2nc(-c3ccc(Oc4ccccc4)cc3)c3c(N)ncnc32)C1` [Ibrutinib] here?
Its remaining binding at 0.3 µM is 98%.

What about the remaining binding at 0.3 µM (BRSK1; [3]) of the same compound?
The remaining binding at 0.3 µM was 72%.

What about the remaining binding at 0.3 µM (PRKCH; [3]) of the same compound?
Its remaining binding at 0.3 µM is 90%.

What about the remaining binding at 0.3 µM (ITK; [3]) of the same compound?
The remaining binding at 0.3 µM was 27%.

And the remaining binding at 0.3 µM (RIPK2; [3])?
The remaining binding at 0.3 µM was 6.4%.

And the remaining binding at 0.3 µM (HIPK3; [3])?
Its remaining binding at 0.3 µM is 51%.

For `CC#CC(=O)N1CC[C@@H](n2c(=O)n(-c3ccc(Oc4ccccc4)cc3)c3c(N)ncnc32)C1` [Tirabrutinib], which remaining binding at 0.3 µM [1, 4] is on record?
The remaining binding at 0.3 µM was 88%.

What about the remaining binding at 0.3 µM (KIT(D816V); [4]) of the same compound?
The remaining binding at 0.3 µM was 93%.

What about the remaining binding at 0.3 µM (PRKCH; [4]) of the same compound?
The remaining binding at 0.3 µM was 91%.

What about the remaining binding at 0.3 µM (ITK; [4]) of the same compound?
Its remaining binding at 0.3 µM is 99%.

And the remaining binding at 0.3 µM (MET(M1250T); [4])?
The remaining binding at 0.3 µM was 93%.

And the remaining binding at 0.3 µM (RIPK2; [4])?
Its remaining binding at 0.3 µM is 33%.

And the remaining binding at 0.3 µM (HIPK3; [4])?
The remaining binding at 0.3 µM was 78%.

Which remaining binding at 0.3 µM (HIPK4; [5]) does the source give for `C=CC(=O)N1CCC([C@@H]2CCNc3c(C(N)=O)c(-c4ccc(Oc5ccccc5)cc4)nn32)CC1` [Zanubrutinib] here?
Its remaining binding at 0.3 µM is 87%.

What about the remaining binding at 0.3 µM [1, 5] of the same compound?
Its remaining binding at 0.3 µM is 87%.

And the remaining binding at 0.3 µM (BRSK1; [5])?
Its remaining binding at 0.3 µM is 92%.

And the remaining binding at 0.3 µM (KIT(D816V); [5])?
Its remaining binding at 0.3 µM is 98%.

What about the remaining binding at 0.3 µM (PRKCH; [5]) of the same compound?
Its remaining binding at 0.3 µM is 97%.

What about the remaining binding at 0.3 µM (ITK; [5]) of the same compound?
Its remaining binding at 0.3 µM is 97%.

What about the remaining binding at 0.3 µM (MET(M1250T); [5]) of the same compound?
The remaining binding at 0.3 µM was 100%.

What about the remaining binding at 0.3 µM (HIPK3; [5]) of the same compound?
The remaining binding at 0.3 µM was 97%.
